Results from US20250017927A1, “PHARMACEUTICAL COMPOSITION AND USE THEREOF” (SHANGHAI ALLIST PHARMACEUTICALS CO., LTD., priority 2021, published 2025).

Experiments:
Ba/F3 EGFR G719S = assay: Proliferation inhibition, CellTiter Glo, Ba/F3 EGFR G719S; assay type: cell-based, mouse; details: for IC50: Mus musculus, Ba/F3 EGFR G719S stably transfected cells, 72 hours
Description: (§1) The proliferation inhibition activity of the compound (furmonertinib mesilate) on four cells of Ba/F3 EGFR G719S, Ba/F3 EGFR G724S, Ba/F3 EGFR S768I, and Ba/F3 EGFR L861Q stably expressing EGFR rare mutation proteins, one cell of Ba/F3 EGFR G719S/T263P stably expressing EGFR double mutation proteins, and three cells of Ba/F3 ERBB2 A775_G776insYVMA, Ba/F3 ERBB2 V777_G778insGC, and Ba/F3 ERBB2 P780_Y781insGSP stably expressing different ERBB2 exon 20 insertion mutation proteins in mouse pro-B cells Ba/F3 in vitro was determined by the CellTiter Glo method.
(§2) Cell source: Ba/F3 EGFR G719S, Ba/F3 EGFR G724S, Ba/F3 EGFR S768I, Ba/F3 EGFR L861Q, Ba/F3 EGFR G719S/T263P, Ba/F3 ERBB2 A775_G776insYVMA, Ba/F3 ERBB2 V777_G778insGC, Ba/F3 ERBB2 P780_Y781insGSP cells were provided by KYinno Biotechnology (Beijing) Co., Ltd.
(§3) Ba/F3 EGFR G719S, Ba/F3 EGFR G724S, Ba/F3 EGFR S768I, Ba/F3 EGFR L861Q, Ba/F3 EGFR G719S/T263P, Ba/F3 ERBB2 A775_G776insYVMA, Ba/F3 ERBB2 V777_G778insGC, Ba/F3 ERBB2 P780_Y781insGSP cells were cultivated in RPMI1640 complete culture medium containing 10% fetal bovine serum. […]
(§4) The CellTiter-Glo reagent (a luciferase ATP bioluminescence detection reagent, commercially available from Promega) was thawed, the 96-well plates inoculated with the cells were taken out from the CO2 constant temperature incubator, and equilibrated to room temperature (about 30 minutes), 100 μL CellTiter-Glo reagent was added to each well, the cells were lyzed by shaking on an orbital shaker for 5 minutes, […] at room temperature for 20 minutes to wait for the luminescence intensity to stabilize, then the luminescence intensity (Lum) was determined with a microplate reader. The cell survival rate at each concentration of the compound was calculated.
(§5) The data were analyzed using GraphPad Prism 7.0 software, fitted with nonlinear S-curve regression to give a dose-effect curve, and IC50 values were calculated therefrom, as shown in Table 1.

Ba/F3 EGFR G724S = assay: Proliferation inhibition, CellTiter Glo, Ba/F3 EGFR G724S; assay type: cell-based, mouse; details: for IC50: Mus musculus, Ba/F3 EGFR G724S stably transfected cells, 72 hours
Description: as §1, §2, §3, §4, §5

Ba/F3 EGFR S768I = assay: Proliferation inhibition, CellTiter Glo, Ba/F3 EGFR S768I; assay type: cell-based, mouse; details: for IC50: Mus musculus, Ba/F3 EGFR S768I stably transfected cells, 72 hours
Description: as §1, §2, §3, §4, §5

Ba/F3 EGFR L861Q = assay: Proliferation inhibition, CellTiter Glo, Ba/F3 EGFR L861Q; assay type: cell-based, mouse; details: for IC50: Mus musculus, Ba/F3 EGFR L861Q stably transfected cells, 72 hours
Description: as §1, §2, §3, §4, §5

Ba/F3 EGFR G719S/T263P = assay: Proliferation inhibition, CellTiter Glo, Ba/F3 EGFR G719S/T263P; assay type: cell-based, mouse; details: for IC50: Mus musculus, Ba/F3 EGFR G719S/T263P stably transfected cells, 72 hours
Description: as §1, §2, §3, §4, §5

[1] = test system: Ba/F3 ERBB2 A775_G776insYVMA; assay: Proliferation inhibition, CellTiter Glo, Ba/F3 ERBB2 A775_G776insYVMA; assay type: cell-based, mouse; details: for IC50: Mus musculus, BaF3, Ba/F3 ERBB2 A775_G776insYVMA stably transfected cells, 72 hours
Description: as §1, §2, §3, §4, §5

[2] = test system: Ba/F3 ERBB2 V777_G778insGC; assay: Proliferation inhibition, CellTiter Glo, Ba/F3 ERBB2 V777_G778insGC; assay type: cell-based, mouse; details: for IC50: Mus musculus, BaF3, Ba/F3 ERBB2 V777_G778insGC stably transfected cells, 72 hours
Description: as §1, §2, §3, §4, §5

[3] = test system: Ba/F3 ERBB2 P780_Y781insGSP; assay: Proliferation inhibition, CellTiter Glo, Ba/F3 ERBB2 P780_Y781insGSP; assay type: cell-based, mouse; details: for IC50: Mus musculus, BaF3, Ba/F3 ERBB2 P780_Y781insGSP stably transfected cells, 72 hours
Description: as §1, §2, §3, §4, §5

[4] = test system: Ba/F3 ERBB2 V777_G778insGC xenograft; assay: Anti-tumor effect in Ba/F3 ERBB2 V777_G778insGC (KC-1410) cell xenograft model; assay type: in vivo; details: for anti-tumor activity: B-NDG mice
Description: This study was used for evaluate the anti-tumor efficacy of three compounds alone in the female (B-NDG) immune deficiency mice bearing tumors of Ba/F3 ERBB2 V777_G778insGC engineered cells.
Experimental animals: B-NDG mice, female, 6-8 weeks, and weighing 18-20 g.
Animal modeling and random grouping: Ba/F3 ERBB2 V777_G778insGC cells were cultivated, cells were collected, and re-suspended and counted in serum-free medium, the re-suspended cells with the addition of a matrigel at 1:1 were subcutaneous inoculated at 1×10^6 cells/0.1 mL in B-NDG mice. When the average tumor volume was about 80-120 mm^3, the animals were randomly grouped into four experiment groups according to the tumor size. Each group contained 12 mice.
The experimental scheme: B-NDG mice were subcutaneously inoculated with Ba/F3 ERBB2 V777_G778insGC cells to establish a cell-line-derived xenograft model.
The curves for the tumor volume change of four experimental groups were shown in FIG. 3, and the curves for the body weight change of four experimental groups were shown in FIG. 4.

[5] = orally once per day, 20 mg-240 mg; cited from earlier work
[6] = test system: EGFR T790M positive advanced non-small cell lung cancer; details: oral 80 mg daily dose, patients with progressive disease after prior systematic anti-tumor therapy; cited from earlier work
[7] = test system: Ba/F3 ERBB2 A775_G776insYVMA subcutaneous xenograft; assay: Anti-tumor effect in Ba/F3 ERBB2 A775_G776insYVMA CDX tumor model; details: 30 mg/kg oral once per day for two weeks
Description: Experimental animals: BALB/c nude mice, female, 8-9 weeks (mouse week-old when tumor cells were inoculated), and weighing 13.7-17.7 g, purchased from the Shanghai branch of Beijing Vital River Laboratory Animal Technology Co., Ltd.
Animal modeling and random grouping: Ba/F3 ERBB2 A775_G776insYVMA cells were cultivated, amplified to two T175 cm^2 culture flasks, cells were collected, and resuspended and counted in serum-free medium DMEM with the addition of a matrix gel at 1:1, and inoculated at 2×10^6 cells/0.1 mL in Balb/c nude mouse right front scapular subcutaneous. When the average tumor volume was about 160 mm^3, the animals were randomly grouped into three experiment groups according to the tumor size. Each group contained 6 mice. The grouping day was defined as Day 0, i.e., DO.
The experimental scheme: BALB/c nude mice were subcutaneously inoculated with Ba/F3 ERBB2 A775_G776insYVMA cells, and a cell line heterograft tumor model was established. The experiment was divided into 30 mg/kg group of AZD9291, 30 mg/kg group of furmonertinib mesilate and a vehicle control group, wherein each group contained 6 animals, orally administered with the administration volume of 10 uL/g, and the vehicle control group was administered with the same amount of vehicle, the administration was carried out once per day and lasted for two weeks. During the whole experiment, the body weight and the tumor sizes of the mice were measured twice each week, and whether or not the presence of toxic reactions was observed.
Tumor Volume (TV) was calculated by: TV=½×a×b×b, where a and b represented the length and the width of tumor, respectively.

Question: For `C=CC(=O)Nc1cc(Nc2nccc(-c3cn(C)c4ccccc34)n2)c(OCC(F)(F)F)nc1N(C)CCN(C)C` [furmonertinib mesilate, N-{2-{[2-(dimethylamino)ethyl](methyl)amino}-6-(2,2,2-trifluoroethoxy)-5-{[4-(1-methyl-1H-indol-3-yl)pyrimidin-2-yl]amino}pyridin-3-yl}acrylamide], which proliferation inhibition activity (Ba/F3 EGFR G719S; Ba/F3 EGFR G719S, result in words) is on record?
Answer: The proliferation inhibition activity was “good proliferation inhibition activity”.

Question: And the IC50 (Ba/F3 EGFR G719S)?
Answer: Its IC50 is 19 nM.

Question: And the proliferation inhibition activity (Ba/F3 EGFR G724S; Ba/F3 EGFR G724S, result in words)?
Answer: Its proliferation inhibition activity is “good proliferation inhibition activity”.

Question: What about the IC50 (Ba/F3 EGFR G724S) of the same compound?
Answer: The IC50 was 35 nM.

Question: And the proliferation inhibition activity (Ba/F3 EGFR S768I; Ba/F3 EGFR S768I, result in words)?
Answer: The proliferation inhibition activity was “good proliferation inhibition activity”.

Question: What about the IC50 (Ba/F3 EGFR S768I) of the same compound?
Answer: The IC50 was 33 nM.

Question: And the proliferation inhibition activity (Ba/F3 EGFR L861Q; Ba/F3 EGFR L861Q, result in words)?
Answer: The proliferation inhibition activity was “good proliferation inhibition activity”.

Question: What about the IC50 (Ba/F3 EGFR L861Q) of the same compound?
Answer: The IC50 was 13 nM.

Question: And the proliferation inhibition activity (Ba/F3 EGFR G719S/T263P; Ba/F3 EGFR G719S/T263P, result in words)?
Answer: Its proliferation inhibition activity is “good proliferation inhibition activity”.

Question: What about the IC50 (Ba/F3 EGFR G719S/T263P) of the same compound?
Answer: The IC50 was 37 nM.

Question: And the proliferation inhibition activity ([1]; Ba/F3 ERBB2 A775_G776insYVMA, result in words)?
Answer: Its proliferation inhibition activity is “good proliferation inhibition activity”.

Question: What about the IC50 [1] of the same compound?
Answer: The IC50 was 118 nM.

Question: What about the proliferation inhibition activity ([2]; Ba/F3 ERBB2 V777_G778insGC, result in words) of the same compound?
Answer: The proliferation inhibition activity was “good proliferation inhibition activity”.

Question: What about the IC50 [2] of the same compound?
Answer: The IC50 was 25 nM.

Question: And the proliferation inhibition activity ([3]; Ba/F3 ERBB2 P780_Y781insGSP, result in words)?
Answer: Its proliferation inhibition activity is “good proliferation inhibition activity”.

Question: What about the IC50 [3] of the same compound?
Answer: Its IC50 is 33 nM.

Question: What about the anti-tumor activity ([4]; 15 mg/kg oral once per day for two weeks) of the same compound?
Answer: The anti-tumor activity was “moderate anti-tumor activity”.

Question: What about the anti-tumor activity ([4]; 30 mg/kg oral once per day for two weeks) of the same compound?
Answer: Its anti-tumor activity is “extremely significant anti-tumor activity”.

Question: What about the anti-tumor activity ([4]; 50 mg/kg oral once per day for two weeks) of the same compound?
Answer: The anti-tumor activity was “extremely significant anti-tumor activity”.

Question: And the “effect on the body weight of mice” value ([4]; 15, 30 and 50 mg/kg groups)?
Answer: The value was “little effect on the body weight”.

Question: And the safety ([4]; 15, 30 and 50 mg/kg groups)?
Answer: The safety was “good safety”.

Question: What about the “adverse events of subjects” value [5] of the same compound?
Answer: Its value is “mild or moderate”.

Question: What about the dose-limiting toxicity [5] of the same compound?
Answer: The dose-limiting toxicity was “does not occur”.

Question: What about the dose-related toxic reaction [5] of the same compound?
Answer: Its dose-related toxic reaction is “does not occur”.

Question: What about the tolerance and safety [5] of the same compound?
Answer: Its tolerance and safety is “good”.

Question: What about the anti-tumor effect [6] of the same compound?
Answer: The anti-tumor effect was “relatively good anti-tumor effect”.

Question: What about the “effect on the body weight of nude mice” value [7] of the same compound?
Answer: The value was “less effect on the body weight”.

Question: And the safety [7]?
Answer: Its safety is “better safety”.

Question: What about the anti-tumor effect ([7]; BALB/c female nude mice) of the same compound?
Answer: Its anti-tumor effect is “good anti-tumor effect”.

Question: What does the source list for `C=CC(=O)Nc1cc(Nc2nccc(-c3cn(C)c4ccccc34)n2)c(OC)cc1N(C)CCN(C)C` [AZD9291, reference compound]?
Answer: IC50 (Ba/F3 EGFR G719S): 68 nM; IC50 (Ba/F3 EGFR G724S): 139 nM; IC50 (Ba/F3 EGFR S768I): 137 nM; IC50 (Ba/F3 EGFR L861Q): 41 nM; IC50 (Ba/F3 EGFR G719S/T263P): 191 nM; IC50 [1]: 489 nM; IC50 [2]: 77 nM; IC50 [3]: 96 nM
